Results published in patent US9981942B2, “Piperidine derivatives having multimodal activity against pain” (LABORATORIOS DEL DR. ESTEVE S.A., priority 2013, dated 2018).

Tested on: σ1 receptor and the μ-opiod receptor
Experiment: μ and σ1 dual binding: combined class from the Ki of both radioligand assays
Design: species or system human; key to μ and σ1 dual binding: +: Both Ki-μ and Ki-σ1>=500 nM; ++: One Ki<500 nM while the other Ki is >=500 nM; +++: Both Ki-μ and Ki-σ1<500 nM; ++++: Both Ki-μ and Ki-σ1<100 nM
Details: transfected HEK-293 membranes (σ1), transfected CHO-K1 cell membranes (μ); for μ and σ1 dual binding: combined class for Ki-μ and Ki-σ1
Summary of the method: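 Classes combine both Ki values, split at 500 nM and 100 nM. Human μ-opioid binding used 1 nM [3H]-DAMGO on CHO-K1 membranes (27 °C, 60 min, pH 7.4, naloxone 10 μM for NSB); human σ1 used 5 nM [3H](+)-pentazocine on HEK-293 membranes (37 °C, 120 min, pH 8, haloperidol 10 μM for NSB).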

| Compound | μ and σ1 dual binding | Ki range for both μ and σ1 (dual-binding class) |
| --- | --- | --- |
| CC1(n2cc(CN3CCC(c4cccc(O)c4)CC3)nn2)C(=O)Nc2ccccc21 (centres unmarked) [Example 95, 3-(4-((4-(3-hydroxyphenyl)piperidin-1-yl)methyl)-1H-1,2,3-triazol-1-yl)-3-methylindolin-2-one] | ++ |  |
| Oc1cccc(C2CCN(Cc3cn([C@@H]4Cc5ccccc5[C@@H]4O)nn3)CC2)c1 [Example 96, (1S,2R)-2-(4-((4-(3-hydroxyphenyl)piperidin-1-yl)methyl)-1H-1,2,3-triazol-1-yl)-2,3-dihydro-1H-inden-1-ol] |  | < 500 nM |
| CS(=O)(=O)Nc1cccc(C2CCN(Cc3cn([C@@H]4Cc5ccccc5[C@@H]4O)nn3)CC2)c1 [Example 97, N-(3-(1-((1-((1S,2R)-1-hydroxy-2,3-dihydro-1H-inden-2-yl)-1H-1,2,3-triazol-4-yl)methyl)piperidin-4-yl)phenyl)methanesulfonamide] | ++ |  |
| CS(=O)(=O)Nc1cccc(C2CCN(Cc3cn(Cc4ccccn4)nn3)CC2)c1 [Example 98, N-(3-(1-((1-(pyridin-2-ylmethyl)-1H-1,2,3-triazol-4-yl)methyl)piperidin-4-yl)phenyl)methanesulfonamide] | ++ |  |
| CS(=O)(=O)Nc1cccc(C2CCN(Cc3cn(Cc4cccnc4)nn3)CC2)c1 [Example 99, N-(3-(1-((1-(pyridin-3-ylmethyl)-1H-1,2,3-triazol-4-yl)methyl)piperidin-4-yl)phenyl)methanesulfonamide] | ++ |  |
| CS(=O)(=O)Nc1cccc(C2CCN(Cc3cn([C@@H]4Cc5ccccc5[C@H]4O)nn3)CC2)c1 [Example 100, N-(3-(1-((1-((1R,2R)-1-hydroxy-2,3-dihydro-1H-inden-2-yl)-1H-1,2,3-triazol-4-yl)methyl)piperidin-4-yl)phenyl)methanesulfonamide] | ++ |  |
| COc1c(NS(C)(=O)=O)cccc1C1CCN(Cc2cn(-c3ccccc3)nn2)CC1 [Example 101, N-(2-methoxy-3-(1-((1-phenyl-1H-1,2,3-triazol-4-yl)methyl)piperidin-4-yl)phenyl)methanesulfonamide] |  | < 500 nM |
| COc1c(NS(C)(=O)=O)cccc1C1CCN(Cc2cn(Cc3ccccc3)nn2)CC1 [Example 102, N-(3-(1-((1-benzyl-1H-1,2,3-triazol-4-yl)methyl)piperidin-4-yl)-2-methoxyphenyl)methanesulfonamide] | ++ |  |
| CCC(=O)Nc1cccc(C2CCN(Cc3cn(Cc4ccccn4)nn3)CC2)c1 [Example 103, N-(3-(1-((1-(pyridin-2-ylmethyl)-1H-1,2,3-triazol-4-yl)methyl)piperidin-4-yl)phenyl)propionamide] | ++ |  |
| CC(C)S(=O)(=O)Nc1cccc(C2CCN(Cc3cn([C@@H]4c5ccccc5C[C@H]4O)nn3)CC2)c1 [Example 104, N-(3-(1-((1-((1R,2R)-2-hydroxy-2,3-dihydro-1H-inden-1-yl)-1H-1,2,3-triazol-4-yl)methyl)piperidin-4-yl)phenyl)propane-2-sulfonamide] | ++ |  |
| CC(C)S(=O)(=O)Nc1cccc(C2CCN(Cc3cn([C@H]4c5ccccc5C[C@@H]4O)nn3)CC2)c1 [Example 105, N-(3-(1-((1-((1S,2S)-2-hydroxy-2,3-dihydro-1H-inden-1-yl)-1H-1,2,3-triazol-4-yl)methyl)piperidin-4-yl)phenyl)propane-2-sulfonamide] | ++ |  |
| CC(C)(O)COc1ccc(-n2cc(CN3CCC(c4cccc(O)c4)CC3)nn2)cc1 [Example 106, 3-(1-((1-(4-(2-hydroxy-2-methylpropoxy)phenyl)-1H-1,2,3-triazol-4-yl)methyl)piperidin-4-yl)phenol] | ++ |  |
| Oc1ccc(-n2cc(CN3CCC(c4cccc(O)c4)CC3)nn2)cc1 [Example 107, 3-(1-((1-(4-hydroxyphenyl)-1H-1,2,3-triazol-4-yl)methyl)piperidin-4-yl)phenol] |  | < 100 nM |
| CS(=O)(=O)Nc1cccc([C@@H]2CCN(Cc3cn(-c4ccccc4)nn3)C[C@@H]2O)c1 [Example 110, N-(3-((3R,4S)-3-hydroxy-1-((1-phenyl-1H-1,2,3-triazol-4-yl)methyl)piperidin-4-yl)phenyl)methanesulfonamide] | ++ |  |
| CCNC(=O)Nc1cccc(C2CCN(Cc3cn(Cc4ccccn4)nn3)CC2)c1 [Example 111, 1-ethyl-3-(3-(1-((1-(pyridin-2-ylmethyl)-1H-1,2,3-triazol-4-yl)methyl)piperidin-4-yl)phenyl)urea] |  | ≥ 500 nM |
| CCS(=O)(=O)Nc1cccc(C2CCN(Cc3cn(Cc4ccccn4)nn3)CC2)c1 [Example 112, N-(3-(1-((1-(pyridin-2-ylmethyl)-1H-1,2,3-triazol-4-yl)methyl)piperidin-4-yl)phenyl)ethanesulfonamide] | ++ |  |

| Compound | μ and σ1 dual binding | Ki range for both μ and σ1 (dual-binding class) |
| --- | --- | --- |
| COc1cccc(Cn2cc(CN3CCC(c4cccc(NS(=O)(=O)C(C)C)c4)CC3)nn2)n1 [Example 113] |  | < 100 nM |
| CC(C)S(=O)(=O)Nc1cccc(C2CCN(Cc3cn(Cc4ncccc4F)nn3)CC2)c1 [Example 114, N-(3-(1-((1-((3-fluoropyridin-2-yl)methyl)-1H-1,2,3-triazol-4-yl)methyl)piperidin-4-yl)phenyl)propane-2-sulfonamide] |  | < 500 nM |
| CC(C)S(=O)(=O)Nc1cccc(C2CCN(Cc3cn(Cc4cccc(F)n4)nn3)CC2)c1 [Example 116, N-(3-(1-((1-((6-fluoropyridin-2-yl)methyl)-1H-1,2,3-triazol-4-yl)methyl)piperidin-4-yl)phenyl)propane-2-sulfonamide] |  | < 500 nM |
| CC(C)S(=O)(=O)Nc1cccc(C2CCN(Cc3cn(Cc4cccc(C(F)(F)F)n4)nn3)CC2)c1 [Example 117, N-(3-(1-((1-((6-(trifluoromethyl)pyridin-2-yl)methyl)-1H-1,2,3-triazol-4-yl)methyl)piperidin-4-yl)phenyl)propane-2-sulfonamide] | ++ |  |
| Cc1cccc(Cn2cc(CN3CCC(c4cccc(NS(=O)(=O)C(C)C)c4)CC3)nn2)n1 [Example 118, N-(3-(1-((1-((6-methylpyridin-2-yl)methyl)-1H-1,2,3-triazol-4-yl)methyl)piperidin-4-yl)phenyl)propane-2-sulfonamide] | ++ |  |
| CS(=O)(=O)Nc1cccc(C2CCN(Cc3nnn4c3-c3ccccc3C4)CC2)c1 [Example 119, N-(3-(1-((8H-[1,2,3]triazolo[5,1-a]isoindol-3-yl)methyl)piperidin-4-yl)phenyl)methanesulfonamide] | ++ |  |
| Oc1cccc(C2CCN(Cc3nnn4c3-c3ccccc3C4)CC2)c1 [Example 120, 3-(1-((8H-[1,2,3]triazolo[5,1-a]isoindol-3-yl)methyl)piperidin-4-yl)phenol] | ++ |  |
| CC(C)S(=O)(=O)Nc1cccc(C2CCN(Cc3cn(Cc4ncccc4C(F)(F)F)nn3)CC2)c1 [Example 121, N-(3-(1-((1-((3-(trifluoromethyl)pyridin-2-yl)methyl)-1H-1,2,3-triazol-4-yl)methyl)piperidin-4-yl)phenyl)propane-2-sulfonamide] | ++ |  |
| CC(C)S(=O)(=O)Nc1cccc(C2CCN(Cc3cn(Cc4ccc(C(F)(F)F)cn4)nn3)CC2)c1 [Example 122, N-(3-(1-((1-((5-(trifluoromethyl)pyridin-2-yl)methyl)-1H-1,2,3-triazol-4-yl)methyl)piperidin-4-yl)phenyl)propane-2-sulfonamide] | ++ |  |
| CC(C)S(=O)(=O)Nc1cccc([C@@H]2CCN(Cc3cn(Cc4ccccc4)nn3)C[C@@H]2O)c1 [Example 123, N-(3-((3R,4S)-1-((1-benzyl-1H-1,2,3-triazol-4-yl)methyl)-3-hydroxypiperidin-4-yl)phenyl)propane-2-sulfonamide] | ++ |  |
| CC(C)S(=O)(=O)Nc1cccc(C2CCN(Cc3cn(Cc4ccc(C(F)(F)F)nc4)nn3)CC2)c1 [Example 124, N-(3-(1-((1-((6-(trifluoromethyl)pyridin-3-yl)methyl)-1H-1,2,3-triazol-4-yl)methyl)piperidin-4-yl)phenyl)propane-2-sulfonamide] | ++ |  |
| CC(C)S(=O)(=O)Nc1cccc([C@@H]2CCN(Cc3cn(Cc4ccccn4)nn3)C[C@@H]2O)c1 [Example 125, N-(3-((3R,4S)-3-hydroxy-1-((1-(pyridin-2-ylmethyl)-1H-1,2,3-triazol-4-yl)methyl)piperidin-4-yl)phenyl)propane-2-sulfonamide] | ++ |  |
| CC(C)S(=O)(=O)Nc1cccc(C2CCN(Cc3cn(Cc4cc(N=[N+]=[N-])ccn4)nn3)CC2)c1 [Example 128] | ++ |  |
| CC(C)S(=O)(=O)Nc1cccc(C2CCN(Cc3cn(Cc4cnc(C(F)(F)F)nc4)nn3)CC2)c1 [Example 129, N-(3-(1-((1-((2-(trifluoromethyl)pyrimidin-5-yl)methyl)-1H-1,2,3-triazol-4-yl)methyl)piperidin-4-yl)phenyl)propane-2-sulfonamide] | ++ |  |
| CC(C)S(=O)(=O)Nc1cccc(C2CCN(Cc3cn(C(CO)c4ccccc4)nn3)CC2)c1 (centres unmarked) [Example 130, N-(3-(1-((1-(2-hydroxy-1-phenylethyl)-1H-1,2,3-triazol-4-yl)methyl)piperidin-4-yl)phenyl)propane-2-sulfonamide] | ++ |  |
| CS(=O)(=O)Nc1cccc(C2CCN(Cc3cn(C(CO)c4ccccc4)nn3)CC2)c1 (centres unmarked) [Example 131, N-(3-(1-((1-(2-hydroxy-1-phenylethyl)-1H-1,2,3-triazol-4-yl)methyl)piperidin-4-yl)phenyl)methanesulfonamide] | ++ |  |
